Results taken from paper PMC5218480 (PLoS ONE, 2017).

System: MV-4-11 cells
Assay: Gene expression microarray analysis (Affymetrix PrimeView) and GSEA
Format: cell-based, human
Design: RFU PODN (11730768_x_at) / Fold change /veh PODN (11730768_x_at) / RFU LINC00158 (11744669_a_at) / Fold change /veh LINC00158 (11744669_a_at) / RFU DUSP10 (11751237_a_at) / Fold change /veh DUSP10 (11751237_a_at) / RFU ID3 (11757404_x_at) / Fold change /veh ID3 (11757404_x_at) / RFU PLEKHG5 (11737974_s_at) / Fold change /veh PLEKHG5 (11737974_s_at) / RFU LRRC4B (11730491_at) / Fold change /veh LRRC4B (11730491_at) / RFU GIMAP4 (11747438_a_at) / Fold change /veh GIMAP4 (11747438_a_at) / RFU KRT8 (11758183_x_at) / Fold change /veh KRT8 (11758183_x_at) / RFU CNN1 (11734310_a_at) / Fold change /veh CNN1 (11734310_a_at) / RFU VPS37D (11726825_at) / Fold change /veh VPS37D (11726825_at) / RFU C10orf10 (11716522_x_at) / Fold change /veh C10orf10 (11716522_x_at) / RFU KIR2DL2 /// KIR2DL4 /// KIR2DL5A /// KIR2DL5B /// KIR2DS1 /// KIR2DS2 /// KIR2DS3 /// KIR2DS4 /// KIR3DL3 /// KIR3DL3 /// KIR3DS1 (11738374_at) / Fold change /veh KIR2DL2 /// KIR2DL4 /// KIR2DL5A /// KIR2DL5B /// KIR2DS1 /// KIR2DS2 /// KIR2DS3 /// KIR2DS4 /// KIR3DL3 /// KIR3DL3 /// KIR3DS1 (11738374_at) / RFU C1QL1 (11718748_at) / Fold change /veh C1QL1 (11718748_at) / RFU TMPRSS4 (11747572_a_at) / Fold change /veh TMPRSS4 (11747572_a_at) / RFU HAMP (11756126_x_at) / Fold change /veh HAMP (11756126_x_at) / RFU RNFT2 (11725882_a_at) / Fold change /veh RNFT2 (11725882_a_at) / RFU NR4A2 (11747474_a_at) / Fold change /veh NR4A2 (11747474_a_at) / RFU ABCC12 (11746883_a_at) / Fold change /veh ABCC12 (11746883_a_at) / RFU TMEM136 (11760407_x_at) / Fold change /veh TMEM136 (11760407_x_at) / RFU CLDN22 /// WWC2 (11732394_at) / Fold change /veh CLDN22 /// WWC2 (11732394_at) / RFU HLA-DPB1 (11760878_x_at) / Fold change /veh HLA-DPB1 (11760878_x_at) / RFU SPINT1 (11716480_a_at) / Fold change /veh SPINT1 (11716480_a_at) / RFU GAP43 (11754022_s_at) / Fold change /veh GAP43 (11754022_s_at) / RFU A4GNT (11735810_at) / Fold change /veh A4GNT (11735810_at) / RFU PRB3 (11715151_x_at) / Fold change /veh PRB3 (11715151_x_at) / RFU TUBB4B (11761932_at) / Fold change /veh TUBB4B (11761932_at) / RFU CAPN14 (11732068_a_at) / Fold change /veh CAPN14 (11732068_a_at) / RFU TMCC2 (11721928_a_at) / Fold change /veh TMCC2 (11721928_a_at) / RFU IRGQ (11745062_a_at) / Fold change /veh IRGQ (11745062_a_at) / RFU FAM174B (11720279_a_at) / Fold change /veh FAM174B (11720279_a_at) / RFU TMPRSS4 (11748680_a_at) / Fold change /veh TMPRSS4 (11748680_a_at) / RFU FAM212B (11763350_a_at) / Fold change /veh FAM212B (11763350_a_at) / RFU PLEKHG5 (11743358_a_at) / Fold change /veh PLEKHG5 (11743358_a_at) / RFU ZSCAN30 (11745921_a_at) / Fold change /veh ZSCAN30 (11745921_a_at) / RFU CMKLR1 (11741424_a_at) / Fold change /veh CMKLR1 (11741424_a_at) / RFU LOC101060620 /// MAPK8IP1 (11723275_at) / Fold change /veh LOC101060620 /// MAPK8IP1 (11723275_at) / RFU SPTSSB (11747773_x_at) / Fold change /veh SPTSSB (11747773_x_at) / RFU PRSS12 (11739890_at) / Fold change /veh PRSS12 (11739890_at) / RFU BIN1 (11741810_x_at) / Fold change /veh BIN1 (11741810_x_at) / RFU WNT11 (11732464_a_at) / Fold change /veh WNT11 (11732464_a_at) / RFU C10orf10 (11716521_a_at) / Fold change /veh C10orf10 (11716521_a_at) / RFU C5orf56 (11738089_at) / Fold change /veh C5orf56 (11738089_at) / RFU CYB561 (11721691_x_at) / Fold change /veh CYB561 (11721691_x_at) / RFU ANKRD19P (11752326_a_at) / Fold change /veh ANKRD19P (11752326_a_at) / RFU OR2T12 /// OR2T33 /// OR2T8 (11738714_s_at) / Fold change /veh OR2T12 /// OR2T33 /// OR2T8 (11738714_s_at) / RFU VCAN (11748164_a_at) / Fold change /veh VCAN (11748164_a_at) / RFU JSRP1 (11732532_at) / Fold change /veh JSRP1 (11732532_at) / RFU KRTAP10-11 (11738290_x_at) / Fold change /veh KRTAP10-11 (11738290_x_at) / RFU MYO3A (11730013_a_at) / Fold change /veh MYO3A (11730013_a_at) / RFU EBF3 (11725865_a_at) / Fold change /veh EBF3 (11725865_a_at) / RFU CAMK2N1 (11719241_x_at) / Fold change /veh CAMK2N1 (11719241_x_at) / RFU C5orf56 (11738088_a_at) / Fold change /veh C5orf56 (11738088_a_at) / RFU OLFML3 (11715873_a_at) / Fold change /veh OLFML3 (11715873_a_at) / RFU LOC100653217 /// NTM (11731650_a_at) / Fold change /veh LOC100653217 /// NTM (11731650_a_at) / RFU MAPK11 (11762145_a_at) / Fold change /veh MAPK11 (11762145_a_at) / RFU FIZ1 (11724087_x_at) / Fold change /veh FIZ1 (11724087_x_at) / RFU OASL (11726364_x_at) / Fold change /veh OASL (11726364_x_at) / RFU SOX15 (11748057_x_at) / Fold change /veh SOX15 (11748057_x_at) / RFU CD79A (11719716_a_at) / Fold change /veh CD79A (11719716_a_at) / RFU HIST1H1D (11736915_at) / Fold change /veh HIST1H1D (11736915_at) / RFU CASKIN2 (11723855_a_at) / Fold change /veh CASKIN2 (11723855_a_at) / RFU LOC730098 (11760151_x_at) / Fold change /veh LOC730098 (11760151_x_at) / RFU OR4N2 (11742367_at) / Fold change /veh OR4N2 (11742367_at) / RFU PRRT2 (11749266_a_at) / Fold change /veh PRRT2 (11749266_a_at) / RFU SNX32 (11753110_a_at) / Fold change /veh SNX32 (11753110_a_at) / RFU CDHR5 (11726645_a_at) / Fold change /veh CDHR5 (11726645_a_at) / RFU RCAN1 (11760418_a_at) / Fold change /veh RCAN1 (11760418_a_at) / RFU FAM167A (11723789_a_at) / Fold change /veh FAM167A (11723789_a_at) / RFU FAM26E (11764081_at) / Fold change /veh FAM26E (11764081_at) / RFU ISYNA1 (11749810_s_at) / Fold change /veh ISYNA1 (11749810_s_at) / RFU ACY1 (11761880_at) / Fold change /veh ACY1 (11761880_at) / RFU 11764098_at / Fold change /veh 11764098_at / RFU SAMD14 (11745864_x_at) / Fold change /veh SAMD14 (11745864_x_at) / RFU NPB (11741838_a_at) / Fold change /veh NPB (11741838_a_at) / RFU TMPRSS6 (11731388_a_at) / Fold change /veh TMPRSS6 (11731388_a_at) / RFU KRTAP10-2 (11738614_at) / Fold change /veh KRTAP10-2 (11738614_at) / RFU ARHGAP8 /// PRR5-ARHGAP8 (11727945_x_at) / Fold change /veh ARHGAP8 /// PRR5-ARHGAP8 (11727945_x_at) / RFU KRTAP5-7 /// NADSYN1 (11734609_at) / Fold change /veh KRTAP5-7 /// NADSYN1 (11734609_at) / RFU RASL12 (11751679_a_at) / Fold change /veh RASL12 (11751679_a_at) / RFU CDKN2B (11736163_a_at) / Fold change /veh CDKN2B (11736163_a_at) / RFU PRF1 (11729649_at) / Fold change /veh PRF1 (11729649_at) / RFU, ZNF638 /// ZNF638-IT1 / Fold change vs veh, ZNF638 /// ZNF638-IT1 / RFU, PANK3 / Fold change vs veh, PANK3 / RFU, SH3YL1 / Fold change vs veh, SH3YL1 / RFU, ZEB2 / Fold change vs veh, ZEB2 / RFU, NRIP1 / Fold change vs veh, NRIP1 / RFU, PTTG1IP / Fold change vs veh, PTTG1IP / RFU, CAPN2 / Fold change vs veh, CAPN2 / RFU, MED14 / Fold change vs veh, MED14 / RFU, SNORA58 / Fold change vs veh, SNORA58 / RFU, C1orf63 / Fold change vs veh, C1orf63 / RFU, LRRFIP1 / Fold change vs veh, LRRFIP1 / RFU, NDUFAF7 / Fold change vs veh, NDUFAF7 / RFU, SLC12A2 / Fold change vs veh, SLC12A2 / RFU, IBTK / Fold change vs veh, IBTK / RFU, ESF1 / Fold change vs veh, ESF1 / Fold change vs veh, TMEM50B / RFU, TAOK1 / Fold change vs veh, TAOK1 / RFU, ACBD3 / Fold change vs veh, ACBD3 / RFU, TMA16 / Fold change vs veh, TMA16 / RFU, RWDD3 / Fold change vs veh, RWDD3 / RFU, BCAT1 / Fold change vs veh, BCAT1 / RFU, EDEM3 / Fold change vs veh, EDEM3 / RFU, TMEM33 / Fold change vs veh, TMEM33 / RFU, WDR75 / Fold change vs veh, WDR75 / RFU, AHCTF1 / Fold change vs veh, AHCTF1 / RFU, TFRC / Fold change vs veh, TFRC / RFU, ZDHHC17 / Fold change vs veh, ZDHHC17 / RFU, NOM1 / Fold change vs veh, NOM1 / RFU, ARL8B / Fold change vs veh, ARL8B / RFU, ZBTB11 / Fold change vs veh, ZBTB11 / RFU, TAMM41 / Fold change vs veh, TAMM41 / RFU, KIAA1704 /// LOC100996395 / Fold change vs veh, KIAA1704 /// LOC100996395 / RFU, ING1 / Fold change vs veh, ING1 / RFU, TRMT61B / Fold change vs veh, TRMT61B / RFU, FUBP3 / Fold change vs veh, FUBP3 / RFU, TP53 / Fold change vs veh, TP53 / RFU, TNKS2 / Fold change vs veh, TNKS2 / RFU, ZFP14 / Fold change vs veh, ZFP14 / RFU, ACTR2 / Fold change vs veh, ACTR2 / RFU, PPP3R1 / Fold change vs veh, PPP3R1 / RFU, PIK3R1 / Fold change vs veh, PIK3R1 / RFU, HNRNPA1 / Fold change vs veh, HNRNPA1 / RFU, RNF170 / Fold change vs veh, RNF170 / RFU, ZNF28 / Fold change vs veh, ZNF28 / RFU, RNGTT / Fold change vs veh, RNGTT / RFU, OGT / Fold change vs veh, OGT / RFU, BRD1 / Fold change vs veh, BRD1 / RFU, MARS / Fold change vs veh, MARS / RFU, ZNF655 / Fold change vs veh, ZNF655 / RFU, FAHD1 / Fold change vs veh, FAHD1 / RFU, BDP1 / Fold change vs veh, BDP1 / RFU, LRRCC1 / Fold change vs veh, LRRCC1 / RFU, ARID1A / Fold change vs veh, ARID1A / RFU, ZNF146 / Fold change vs veh, ZNF146 / RFU, ZNF330 / Fold change vs veh, ZNF330 / RFU, GPN3 / Fold change vs veh, GPN3 / RFU, C9orf123 / Fold change vs veh, C9orf123 / RFU, N4BP2L2 / Fold change vs veh, N4BP2L2 / RFU, ARFIP1 / Fold change vs veh, ARFIP1 / RFU, FAM179B / Fold change vs veh, FAM179B / RFU, BCL10 / Fold change vs veh, BCL10 / RFU, UHRF1BP1L / Fold change vs veh, UHRF1BP1L / RFU, BET1 / Fold change vs veh, BET1 / RFU, CNOT2 / Fold change vs veh, CNOT2 / RFU, ZNF268 / Fold change vs veh, ZNF268 / Fold change vs veh, ZNF507 / RFU, DGCR2 / Fold change vs veh, DGCR2 / RFU, WDSUB1 / Fold change vs veh, WDSUB1 / Fold change vs veh, HSP90B1 /// MIR3652 / RFU, ADSS / Fold change vs veh, ADSS / RFU, GK / Fold change vs veh, GK / RFU, ZNF148 / Fold change vs veh, ZNF148 / RFU, TAF9 / Fold change vs veh, TAF9 / RFU, SLC1A5 / Fold change vs veh, SLC1A5 / RFU, SLMO2 / Fold change vs veh, SLMO2 / RFU, ABCC4 / Fold change vs veh, ABCC4 / RFU, LOC101060439 /// RAP1B / Fold change vs veh, LOC101060439 /// RAP1B / RFU, RFX7 / Fold change vs veh, RFX7 / RFU, GTPBP10 / Fold change vs veh, GTPBP10 / RFU, CNEP1R1 / Fold change vs veh, CNEP1R1 / RFU, BIVM-ERCC5 /// ERCC5 / Fold change vs veh, BIVM-ERCC5 /// ERCC5 / RFU, ILF3 / Fold change vs veh, ILF3 / RFU 11762660_at / Fold change /veh 11762660_at / RFU VCAN (11757783_s_at) / Fold change /veh VCAN (11757783_s_at) / RFU DDX43 (11728927_at) / Fold change /veh DDX43 (11728927_at) / RFU KRT8 (11758188_x_at) / Fold change /veh KRT8 (11758188_x_at) / RFU NKD1 (11759106_at) / Fold change /veh NKD1 (11759106_at) / RFU SRD5A1 (11742802_a_at) / Fold change /veh SRD5A1 (11742802_a_at) / RFU TPSAB1 /// TPSB2 (11721975_s_at) / Fold change /veh TPSAB1 /// TPSB2 (11721975_s_at) / RFU GSTM3 (11746129_a_at) / Fold change /veh GSTM3 (11746129_a_at) / RFU IL23R (11737362_x_at) / Fold change /veh IL23R (11737362_x_at) / RFU TMEM51 (11727254_a_at) / Fold change /veh TMEM51 (11727254_a_at) / RFU PIWIL2 (11732686_x_at) / Fold change /veh PIWIL2 (11732686_x_at) / RFU ORM1 (11744905_x_at) / Fold change /veh ORM1 (11744905_x_at) / RFU CCDC152 (11743942_at) / Fold change /veh CCDC152 (11743942_at) / RFU ECM1 (11717891_a_at) / Fold change /veh ECM1 (11717891_a_at) / RFU IL23R (11748794_a_at) / Fold change /veh IL23R (11748794_a_at) / RFU TNFAIP8L3 (11732012_x_at) / Fold change /veh TNFAIP8L3 (11732012_x_at) / RFU MBOAT4 (11741988_at) / Fold change /veh MBOAT4 (11741988_at) / RFU 11764193_at / Fold change /veh 11764193_at / RFU TMEM53 (11763286_at) / Fold change /veh TMEM53 (11763286_at) / RFU MAGEB2 (11727129_at) / Fold change /veh MAGEB2 (11727129_at) / RFU TMEM200A (11744735_a_at) / Fold change /veh TMEM200A (11744735_a_at) / RFU CCDC152 (11751479_a_at) / Fold change /veh CCDC152 (11751479_a_at) / RFU FAM211A (11726209_a_at) / Fold change /veh FAM211A (11726209_a_at) / RFU RGS16 (11746705_a_at) / Fold change /veh RGS16 (11746705_a_at) / RFU VCAN (11755009_s_at) / Fold change /veh VCAN (11755009_s_at) / RFU RHOB (11743442_s_at) / Fold change /veh RHOB (11743442_s_at) / RFU RGS16 (11720943_a_at) / Fold change /veh RGS16 (11720943_a_at) / RFU RGS16 (11720944_at) / Fold change /veh RGS16 (11720944_at) / RFU, VPS4B / Fold change vs veh, VPS4B / RFU, CREB1 / Fold change vs veh, CREB1 / RFU, DNAJC13 / Fold change vs veh, DNAJC13 / RFU, GNAQ / Fold change vs veh, GNAQ / RFU, CDK5R1 / Fold change vs veh, CDK5R1 / RFU, ZRANB3 / Fold change vs veh, ZRANB3 / RFU, CUL4A / Fold change vs veh, CUL4A / RFU, CCNY / Fold change vs veh, CCNY / RFU, UFL1 / Fold change vs veh, UFL1 / RFU, COG3 / Fold change vs veh, COG3 / RFU, DIAPH2 / Fold change vs veh, DIAPH2 / RFU, SKA2 / Fold change vs veh, SKA2 / RFU, AFF3 / Fold change vs veh, AFF3 / RFU, LMF1 / Fold change vs veh, LMF1 / RFU, IPO11 / Fold change vs veh, IPO11 / RFU, DFFB / Fold change vs veh, DFFB / RFU, FOXP1 / Fold change vs veh, FOXP1 / RFU, CARD8 / Fold change vs veh, CARD8 / RFU, STRN3 / Fold change vs veh, STRN3 / RFU, ADK / Fold change vs veh, ADK / RFU, RASSF2 / Fold change vs veh, RASSF2 / RFU, WIPF1 / Fold change vs veh, WIPF1 / RFU, LARP1B / Fold change vs veh, LARP1B / RFU, RASA1 / Fold change vs veh, RASA1 / RFU, RB1 / Fold change vs veh, RB1 / RFU, PPFIA1 / Fold change vs veh, PPFIA1 / RFU, MAT2A / Fold change vs veh, MAT2A / RFU, CCT5 / Fold change vs veh, CCT5 / RFU, WDR92 / Fold change vs veh, WDR92 / RFU, CUX1 / Fold change vs veh, CUX1 / RFU, TTC7A / Fold change vs veh, TTC7A / RFU, TMEM135 / Fold change vs veh, TMEM135 / RFU, DEPTOR / Fold change vs veh, DEPTOR / RFU, CPM / Fold change vs veh, CPM / RFU, DNAJB6 / Fold change vs veh, DNAJB6 / RFU, CACNA2D3 / Fold change vs veh, CACNA2D3 / RFU, DTX4 / Fold change vs veh, DTX4 / RFU, TFCP2 / Fold change vs veh, TFCP2 / RFU, GMCL1 /// GMCL1P1 / Fold change vs veh, GMCL1 /// GMCL1P1 / RFU, AEBP2 / Fold change vs veh, AEBP2 / RFU, SNHG1 /// SNORD22 /// SNORD25 /// SNORD26 /// SNORD27 /// SNORD28 /// SNORD29 /// SNORD31 / Fold change vs veh, SNHG1 /// SNORD22 /// SNORD25 /// SNORD26 /// SNORD27 /// SNORD28 /// SNORD29 /// SNORD31 / Fold change (Aza/veh), C12orf56 (ProbeSet 11735607_a_at) / Fold change (ACY-1035/veh), C12orf56 (ProbeSet 11735607_a_at) / Fold change (Aza/veh), FGFR1OP (ProbeSet 11751329_s_at) / Fold change (ACY-1035/veh), FGFR1OP (ProbeSet 11751329_s_at) / Fold change (Aza/veh), VPS36 (ProbeSet 11739960_a_at) / Fold change (ACY-1035/veh), VPS36 (ProbeSet 11739960_a_at) / RFU SYPL1 (11715823_x_at) / Fold change /veh SYPL1 (11715823_x_at) / RFU IGFBP7 (11715501_s_at) / Fold change /veh IGFBP7 (11715501_s_at) / RFU REEP3 (11722064_at) / Fold change /veh REEP3 (11722064_at) / RFU IGLL1 (11728026_x_at) / Fold change /veh IGLL1 (11728026_x_at): dose or concentration left out as unconfirmed
Conditions: ProbeSet 11756954_s_at; LIST B

Which “Fold change vs veh, ZEB2” value does the source give for `Nc1ncn([C@@H]2O[C@H](CO)[C@@H](O)[C@H]2O)c(=O)n1` [azacitidine] here?
The value was 0.83.
